These results are taken from patent publication US20030022813A1, “Treating pain by targeting hyperpolarization-activated, cyclic nucleotide-gated channels” (priority 2001, published 2003).

“Also recorded” adds a separate entry of the source.

Data set [1] concerns preclinical models of neuropathic pain. To be noted: cited from earlier work.
Another data set has as its system CFA-injected rats. The data set can be described thus: Tactile allodynia in the complete Freund's adjuvant (CFA) paw model of inflammatory pain. Format: in vivo, rat.
Another data set deals with T1, human HCN1 (Homo sapiens, UniProt O60741).
T1 construct: expressed in transfected cells; host or cells: Xenopus laevis oocytes injected with cRNA transcribed from pGEM HE-human HCN1
T1 sequence (O60741 1-890): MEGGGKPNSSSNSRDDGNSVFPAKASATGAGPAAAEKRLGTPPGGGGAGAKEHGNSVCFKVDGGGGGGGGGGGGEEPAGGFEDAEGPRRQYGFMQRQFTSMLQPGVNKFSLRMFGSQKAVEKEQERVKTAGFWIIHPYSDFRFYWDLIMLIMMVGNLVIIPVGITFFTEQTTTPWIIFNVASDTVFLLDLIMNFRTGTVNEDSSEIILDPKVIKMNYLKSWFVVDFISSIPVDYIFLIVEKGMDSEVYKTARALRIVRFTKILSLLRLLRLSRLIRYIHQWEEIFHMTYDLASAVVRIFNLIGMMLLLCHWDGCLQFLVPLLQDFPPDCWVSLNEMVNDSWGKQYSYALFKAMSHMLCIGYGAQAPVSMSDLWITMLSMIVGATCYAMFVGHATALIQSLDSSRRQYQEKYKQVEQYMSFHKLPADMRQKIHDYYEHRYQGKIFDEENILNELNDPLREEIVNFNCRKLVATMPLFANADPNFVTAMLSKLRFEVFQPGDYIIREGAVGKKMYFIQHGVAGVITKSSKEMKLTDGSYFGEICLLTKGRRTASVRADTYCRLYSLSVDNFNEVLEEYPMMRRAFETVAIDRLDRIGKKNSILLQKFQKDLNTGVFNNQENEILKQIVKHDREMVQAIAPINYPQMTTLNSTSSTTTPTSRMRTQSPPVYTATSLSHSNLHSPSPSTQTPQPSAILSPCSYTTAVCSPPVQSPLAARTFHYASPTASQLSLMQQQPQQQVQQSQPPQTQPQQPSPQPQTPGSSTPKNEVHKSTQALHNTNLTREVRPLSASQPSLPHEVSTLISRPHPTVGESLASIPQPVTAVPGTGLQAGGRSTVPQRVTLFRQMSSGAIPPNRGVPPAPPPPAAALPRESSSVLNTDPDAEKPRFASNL
The data set is described as follows: Two-electrode voltage clamp of Xenopus oocytes injected with human HCN1 cRNA. To be noted: for block of HCN1 currents: Cs+ 3 mM in ND-96. Format: cell-based. (In general: Two-electrode voltage clamp is typically applied to oocytes expressing channels or transporters.)

For another data set, the target named is T2, human HCN3 (Homo sapiens, UniProt Q9P1Z3).
T2 construct: expressed in transfected cells; host or cells: HEK293 cells stably transfected with hHCN3-pCDNA3.1 Zeo
T2 sequence (Q9P1Z3 1-774): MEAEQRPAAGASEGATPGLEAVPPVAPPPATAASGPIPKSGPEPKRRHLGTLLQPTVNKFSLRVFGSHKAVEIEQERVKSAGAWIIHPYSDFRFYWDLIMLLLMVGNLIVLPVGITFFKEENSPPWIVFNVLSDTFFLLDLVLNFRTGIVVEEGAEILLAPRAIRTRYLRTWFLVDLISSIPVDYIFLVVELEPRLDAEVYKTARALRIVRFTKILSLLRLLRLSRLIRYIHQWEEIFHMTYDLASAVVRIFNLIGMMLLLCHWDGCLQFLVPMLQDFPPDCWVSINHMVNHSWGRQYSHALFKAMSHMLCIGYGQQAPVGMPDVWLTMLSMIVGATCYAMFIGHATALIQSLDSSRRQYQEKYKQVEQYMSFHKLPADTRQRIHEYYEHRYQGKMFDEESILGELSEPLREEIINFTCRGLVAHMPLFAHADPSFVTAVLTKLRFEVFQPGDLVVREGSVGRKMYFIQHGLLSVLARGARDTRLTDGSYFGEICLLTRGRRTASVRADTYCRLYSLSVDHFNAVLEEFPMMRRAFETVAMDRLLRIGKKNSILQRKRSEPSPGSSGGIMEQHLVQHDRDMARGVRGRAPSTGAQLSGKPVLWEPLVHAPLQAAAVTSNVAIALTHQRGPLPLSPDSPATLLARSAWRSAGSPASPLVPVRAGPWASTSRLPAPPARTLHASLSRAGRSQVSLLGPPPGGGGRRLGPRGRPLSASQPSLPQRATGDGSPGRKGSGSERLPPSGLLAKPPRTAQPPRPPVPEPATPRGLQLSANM
The data set can be described thus: Whole cell patch clamp of HEK293 cells stably expressing human HCN3. Format: cell-based.

Another data set relates to Ih in large DRG neurons. The data set is described as follows: Whole cell patch clamp of Ih in acutely dissociated large L5 DRG neurons of SNL and control rats. Format: cell-based, rat. A general note: Patch clamp records ionic current or voltage across a cell membrane.
Data set [2] deals with native Ih in normal rat L4 dorsal root ganglion neurons. The data set is described as follows: Whole cell patch clamp of native Ih in dissociated L4 DRG neurons of uninjured rats (lidocaine). Format: cell-based. The following applies: bath-applied at neutral pH. As to the method:
Lidocaine was tested for its effect on Ih expressed in dissociated L4 dorsal root ganglion neurons from uninjured rats to determine whether this well known Na channel blocker could have other mechanisms of action.
DRG were extirpated, dissociated and cultured 3-4 days on poly-D-lysine coated coverslips as described in Example 10. Ih was measured using the whole cell configuration of the patch clamp technique according to the methods described in Example 10 with the exception that the pipette solution was the solution used in Example 3. Neurons were challenged with a family of hyperpolarizing voltage pulses (−60 mV to −150 mV in increments of 10 mV) from a holding potential of −50 mV. Ih was determined at the end of 600 msec duration test pulses. Lidocaine was bath-applied at neutral pH and the percent inhibition of control Ih was determined after lidocaine achieved steady state block. Plotted is the steady state current observed at −134 mV as a percent of control after incubation of lidocaine at the indicated concentrations. […] Lidocaine block was reversible. Data were obtained from 3 cells having control Ih densities of −1.5, −2.0 and −2.2 pA/pF.

Data set [3] has as its system ectopic firing in injured peripheral nerves. To be noted: systemically administered; cited from earlier work.
Data set [4] relates to spontaneous firing of injured primary afferents (Aβ and Aδ fibers). The data set is described as follows: In vitro single fiber recording of spontaneous (ectopic) discharges in excised dorsal root/DRG/spinal nerve preparations from SNL rats. More on the design: species or system rat.
The test system of a further data set is SNL rats. The data set can be described thus: Tactile allodynia (von Frey 50% paw withdrawal threshold) in the SNL (Chung) neuropathic pain model. Format: in vivo, rat. To be noted: i.p. The procedure: Preparation of SNL (spinal nerve ligation) model: All studies were conducted in keeping with the guidelines of the Institutional Animal Care Committees of the University of California, San Diego and RWJPRI. Male Harlan Sprague-Dawley rats, 100-150 g, were housed in cages with solid bottoms and sawdust bedding, with a 12/12 h reversed light cycle (lights on 2100-900), and allowed free access to food pellets and water. Animals were housed in groups of 2 after surgical interventions. A surgical neuropathy was created as follows, to create a model commonly referred to as the SNL, or spinal nerve ligation model, also commonly referred to as the Chung model. Under isoflurane/oxygen anesthesia, a dorsal midline incision was made from approximately L3-S2. Using a mixture of sharp and blunt dissection, the left L6/S1 posterior interarticular process was exposed and resected to permit adequate visualization of the L6 transverse process, which was gently removed. Careful teasing of the underlying fascia exposed the left L4 and L5 spinal nerves distal to their emergence from the intervertebral foramina. The nerves were gently separated, and the L5 and in some cases either the L4 (for in vitro electrophysiology recordings) or the L6 nerve firmly ligated with 6-0 silk suture material. The wound was then inspected for hemostasis and closed in two layers. Animals with thresholds greater than 4 g were considered unsuccessful preparations(Chaplan et al., (1994) Journal of Neuroscience Methods 53: 55-63).
Behavioral assessment: Behavioral signs of allodynia were documented as follows. Briefly, rats were transferred to a testing cage with a wire mesh bottom and allowed to acclimate for 10-15 minutes. […] Lifting of the paw was recorded as a positive response and the next lightest filament chosen for the next measurement. […]

For a further data set, the system named is normal rats. The data set can be described thus: 55° C. hot plate test (latency to paw lick), acute thermally induced pain. Format: in vivo, rat. The following applies: 10 mg/kg i.p. As to the method: A cutoff of 20 seconds of thermal surface exposure was employed to prevent tissue damage. Drug administration: Normal rats were administered ZD7288, 10 mg/kg, or an equivalent volume of saline, i.p. at time 0. Behavioral assessments were performed at 45, 60 and 75 minutes after drug administration.
In general terms: Hot-plate and tail-flick tests time the reaction to a heat stimulus.

Data set [5] concerns rat mild thermal injury model. The data set is described as follows: Spontaneous pain behaviors in the rat mild thermal injury (first-degree burn) model. The following applies: for suppression of spontaneous pain behaviors: 30 and 60 min; for adverse behavioral effects: morphine 3 mg/kg or ZD7288 10 mg/kg i.p.

For `CCCCN1CCCCC1C(=O)Nc1c(C)cccc1C` (stereo not shown) [bupivacaine], in data set [1], the anti-hyperalgesic activity result is reported as “does not possess any anti-hyperalgesic activity”.
Consider `CC(C)Cc1ccc(C(C)C(=O)O)cc1` (stereo not shown) [ibuprofen], for which the “suppression of CFA-induced tactile allodynia” value with CFA-injected rats (ibuprofen 30 mg/kg i.p.) is listed as “suppressed”; in the data set on CFA-injected rats (ibuprofen 30 mg/kg i.p., listed as Ibuprofen), “some efficacy”.
For `[Cl-].[Cs+]` [Cs^+, CsCl], at human HCN1 (Cs+ 3 mM), the “effect on endogenous inward currents of oocytes” value is on record as “no effect”. Also, the “block of HCN1 currents” value is on record as 94% on human HCN1 (Ih evoked by stepping to −80 mV, n=3); 92% on human HCN1 (Ih evoked by stepping to −100 mV, n=3); 90% at human HCN1 (Ih evoked by stepping to −120 mV, n=3). The “block of low threshold inward currents in HCN1-injected oocytes, reversibility” value at human HCN1 (Cs+ 3 mM, n=3) was “reversibly blocked”. The “block of hyperpolarization-induced inward currents (Ih)” value at human HCN3 (3 mM CsCl) is recorded as “completely blocked”. Also, at human HCN3 (Cs+ 3 mM), the “reversibility of effect on HCN3 currents” value is listed as “rapidly reversible”. The “block of Ih in large DRG neurons” value in the data set on Ih in large DRG neurons (extracellular Cs+ 3 mM) was “efficacious block”.
`CCN(CC)CC(=O)Nc1c(C)cccc1C` [lidocaine]: the “reversibility of block of Ih” value in data set [2] is listed as “reversible”. Moreover, the “effect on ectopic firing in injured peripheral nerves” value in data set [3] is on record as “stops the ectopic firing”.
Consider `CCN(c1ccccc1)c1cc(=NC)n(C)c(C)n1.Cl` [ZD7288], for which, on human HCN3 (ZD7288 50 μM, subsequently washed, previously 6 of 6 cells expressed Ih), the “cells with no detectable Ih after previous bath exposure and wash” value is recorded as 3 of 3. For the same compound, the “block of hyperpolarization-induced inward currents (Ih)” value on human HCN3 (ZD7288 50 μM, n=3) was 98+/−2%. Besides, on human HCN3 (ZD7288 50 μM, washout period of at least 15 min), the “reversibility of effect on HCN3 currents” value is given as “did not reverse”. Besides, in data set [4] (100 micromolar), the “effect on spontaneous firing of Aδ fiber” value was “attenuation of firing” and the “time to complete suppression of ectopic firing, typical Aβ fiber” value was in the range of 3 to 4 min. The “conduction blockade of evoked action potentials” value in [4] (after application of ZD7288) was “no conduction blockade”. The “suppression of spontaneous discharges of Aβ fibers” value in [4] (bath application 100 μM for 5 min) was “complete suppression; also recorded: completely suppressed”. Further, the “efficacy of suppression of allodynic responses (% MPE)” value in the data set on SNL rats was 75.7+/−15.4%. Further, the “suppression of tactile allodynia” value with SNL rats (1, 3, 10 mg/kg) is “suppressed allodynic responses in a dose-dependent manner; also recorded: blocked in a dose dependent manner; also recorded: suppressed the tactile allodynia”. The “behavioral adverse effects / motor function” value in the data set on SNL rats (up to 10 mg/kg) is reported as “No untoward behavioral effects; also recorded: normal motor function; also recorded: without overt adverse effects on behavior”. Also, in the data set on normal rats, the “effect on acute thermally-evoked pain” value is on record as “minimal effect”. Besides, the “difference from saline in hot plate latency” value in the data set with normal rats (45 or 60 min) is “No statistically significant difference”. In addition, the “difference from saline in hot plate latency” value in the data set on normal rats (75 min, statistically significant, minor) is “approximately 15%”. The “suppression of CFA-induced tactile allodynia” value in the data set with CFA-injected rats (ZD7288 10 mg/kg i.p., 10 mg/kg) is “suppressed allodynia; also recorded: markedly suppressed”. For the same compound, in the data set with Ih in large DRG neurons (ZD7288 50 μM), the “block of Ih in large DRG neurons” value is listed as “efficacious block”. In addition, the “suppression of spontaneous pain behaviors” value in data set [5] (ZD7288 10 mg/kg i.p., 10 mg/kg) is recorded as “near complete suppression; also recorded: suppressed spontaneous pain”. In data set [5], the adverse behavioral effects entry was “No adverse behavioral effects”.
In the case of `CN1CC[C@]23c4c5ccc(O)c4O[C@H]2[C@@H](O)C=C[C@H]3[C@H]1C5` [morphine], in the data set with CFA-injected rats (morphine 3 mg/kg i.p.), the “suppression of CFA-induced tactile allodynia” value was “suppressed”. The “suppression of spontaneous pain behaviors” value in data set [5] (morphine 3 mg/kg i.p.) is reported as “near complete suppression; also recorded: suppressed spontaneous pain”. The adverse behavioral effects result in data set [5] is reported as “No adverse behavioral effects”.
Turning to `NCC1(CC(=O)O)CCCCC1` [gabapentin], the “suppression of CFA-induced tactile allodynia” value with CFA-injected rats (gabapentin 100 mg/kg i.p.) was “not”.
